Reference: patent US20220280515A1, “Ophthalmic Composition for Promoting Tear Secretion” (Rohto Pharmaceutical Co., Ltd., priority 2019, published 2022)
Structures can show the parent of a compound that is named as a salt.

Tests used:
[1] = tested on: lacrimal gland excised rats; assay: Tear secretion promoting action by single ophthalmic administration, Schirmer's test paper, lacrimal gland excised rats; type: in vivo, Sprague-Dawley (SD) rats; details: rats with main and accessory lacrimal glands excised 1 week earlier; 5 μL/eye single instillation (DIQUAS 3%, 3% pilocarpine, 0.05% delgocitinib); 15 minutes later; Mann-whitney U test
Protocol: (§1) The tear secretion promoting action of delgocitinib was evaluated using normal rats and lacrimal gland excision rats.
(§2) As a test substance, a 0.05% delgocitinib solution (delgocitinib as the active ingredient and sodium chloride, potassium chloride, sodium hydroxide, boric acid, and chlorhexidine gluconate as additives were combined, dissolved and stirred in purified water) was prepared. As a control substance, pilocarpine hydrochloride (Tokyo Chemical Industry Co., Ltd.) was dissolved and stirred in saline (OTSUKA NORMAL SALINE, Otsuka Pharmaceutical Factory, Inc.) to prepare a 3% pilocarpine solution.
(§3) Into normal male Sprague-Dawley (SD) rats (Japan SLC, Inc.) and SD rats whose main and accessory lacrimal glands had been excised 1 week earlier, saline, the DIQUAS ophthalmic solution 3% (Santen Pharmaceutical Co., Ltd.), the 3% pilocarpine solution, or the 0.05% delgocitinib solution was instilled at a dose of 5 μL/eye. Ten minutes later, anesthesia was induced using somnopentyl (Kyoritsu Seiyaku Corporation), and another 5 minutes later, a Schirmer's test paper was inserted into conjunctival sac on the corner of the eye. One minute later, the test paper was pulled out, and the length of the wet part of the test paper was measured, and this measured value was used as a tear volume.

[2] = tested on: lacrimal gland excised rats; assay: Tear volume increasing action by repeated ophthalmic administration, lacrimal gland excised rats (dry eye model); type: in vivo, Sprague-Dawley (SD) rats; details: main lacrimal gland excised rats; each concentration (0.0125%, 0.05%, 0.2%), 5 μL/eye four times a day, four weeks; Steel test
Protocol: The tear secretion volume increasing action of delgocitinib was evaluated using lacrimal gland excised rats as a dry eye model. Delgocitinib was dissolved and stirred in PBS (Kohjin Bio Co., Ltd.) to prepare delgocitinib solutions (0.0125%, 0.05%, and 0.2%) at each concentration. Into normal male Sprague-Dawley (SD) rats (Japan SLC, Inc.) and SD rats whose main lacrimal gland had been excised 1 week earlier, the PBS or the delgocitinib solutions at each concentration were repeatedly instilled four times a day at a dose of 5 μL/eye. Four weeks after the start of ophthalmic instillation, the PBS or the delgocitinib solutions at each concentration were instilled at a dose of 5 μL/eye, anesthesia was induced using somnopentyl (Kyoritsu Seiyaku Corporation) 10 minutes later, and another 5 minutes later, a Schirmer's test paper was inserted into conjunctival sac on the corner of the eye. One minute later, the test paper was pulled out, and the length of the wet part of the test paper was measured, and this measured value was used as a tear volume.

[3] = tested on: normal rats; assay: Tear secretion promoting action by single ophthalmic administration, Schirmer's test paper, normal rats; type: in vivo, Sprague-Dawley (SD) rats; details: 5 μL/eye single instillation (DIQUAS 3%, 3% pilocarpine, 0.05% delgocitinib), 15 minutes later, Mann-whitney U test
Protocol: as §1, §2, §3

[4] = tested on: normal mice; assay: Tear secretion promoting action by single ophthalmic administration, phenol red thread, normal mice; type: in vivo, C57BL/6J mice; details: 3 μL/eye single instillation, 15 minutes later
Protocol: The tear secretion promoting action of delgocitinib was evaluated using normal mice. Delgocitinib was dissolved and stirred in PBS (Kohjin Bio Co., Ltd.) to prepare delgocitinib solutions at each concentration (0.0125%, 0.05%, and 0.2%). Female C57BL/6J mice (Japan SLC, Inc.) were retained, and the PBS or the delgocitinib solutions at each concentration were instilled at a dose of 3 μL/eye. Fifteen minutes later, a phenol red thread (ZONE-QUICK, AYUMI Pharmaceutical Corporation) was inserted into conjunctival sac on the corner of the eye. Fifteen seconds later, the phenol red thread was pulled out, the length of the wet part of the phenol red thread was measured, and this measured value was used as the tear volume.

[5] = tested on: lacrimal gland excised rats; assay: Action of ameliorating keratoconjunctival epithelial disorders by repeated ophthalmic administration, fluorescein staining score, lacrimal gland excised rats (dry eye model); type: in vivo, SD rats; details: main lacrimal gland excised rats; each concentration (0.0125%, 0.05%, 0.2%), 5 μL/eye four times a day, four weeks; Steel test
Protocol: The action of ameliorating keratoconjunctival epithelial disorders of delgocitinib was evaluated using rats with lacrimal gland excision used as a dry eye model. Fluorescein sodium salt (Sigma-Aldrich Japan) was dissolved in OTSUKA NORMAL SALINE (Otsuka Pharmaceutical Factory, Inc.) to prepare a 10 mg/mL fluorescein staining solution. Delgocitinib was dissolved and stirred in PBS (Kohjin Bio Co., Ltd.) to prepare delgocitinib solutions at each concentration (0.0125%, 0.05%, and 0.2%). Into male SD rats (Japan SLC, Inc.) whose main lacrimal gland had been excised 1 week earlier, the PBS or the delgocitinib solutions at each concentration were repeatedly instilled four times a day at a dose of 5 μL/eye. Four weeks after the start of ophthalmic instillation, the 10 mg/mL fluorescein staining solution was instilled at a dose of 1 μL/eye. After induction of anesthesia with an ISOFLURANE inhalation solution (Pfizer Japan Inc.), a photograph was taken with a fluorescence microscope (Leica Microsystems). The cornea captured in the photograph was divided into four sections, the staining score of each section was scored on a scale of 0 to 5, and the total score of four sections was used as the corneal epithelial disorder score for the eye.

[6] = tested on: normal rabbits; assay: Tear secretion promoting action by single ophthalmic administration, Schirmer's test paper, normal rabbits; type: in vivo, Japanese white rabbits; details: 0.05% solution in PBS, 50 μL/eye single instillation, 15 minutes later, Student's t test
Protocol: The tear secretion promoting action of delgocitinib was evaluated using normal rabbits. Delgocitinib was dissolved and stirred in PBS (Kohjin Bio Co., Ltd.) to prepare a 0.05% delgocitinib solution. Male Japanese white rabbits (Oriental Yeast Co., Ltd.) were placed in retention tubes, and the PBS or the 0.05% delgocitinib solution was instilled at a dose of […]. Fifteen minutes later, a Schirmer's test paper was inserted into conjunctival sac on the corner of the eye. One minute later, the test paper was pulled out, and the length of the wet part of the test paper was measured, which was used as a tear volume.

[7] = tested on: dry eye model of rats; details: reported in Non Patent Literature 1; cited from earlier work

C[C@H]1CN(C(=O)CC#N)[C@]12CCN(c1ncnc3[nH]ccc13)C2 [delgocitinib, 3-[(3S,4R)-3-methyl-6-(7H-pyrrolo[2,3-d]pyrimidin-4-yl)-1,6-diazaspiro[3.4]octan-1-yl]-3-oxopropanenitrile]
tear volume (length of the wet part of Schirmer's test paper) compared with the saline group [1]: significantly increased | tear volume (length of the wet part of Schirmer's test paper) compared with the PBS group [2]: significantly increased | tear volume (length of the wet part of Schirmer's test paper) compared with the saline group [3]: significantly increased | tear volume (length of the wet part of phenol red thread) compared with the PBS group ([4]; 0.05% solution, Dunnett's test): significant increase | tear volume (length of the wet part of phenol red thread) compared with the PBS group ([4]; 0.2% solution, Dunnett's test): significant increase | tear volume (length of the wet part of phenol red thread) compared with the PBS group ([4]; each concentration (0.0125%, 0.05%, 0.2%)): increased | corneal epithelial disorder score (fluorescein staining, total of four sections each 0 to 5) compared with the PBS group [5]: significantly decreased | tear volume (length of the wet part of Schirmer's test paper) compared with the PBS group [6]: significantly increased

O=c1ccn([C@@H]2O[C@H](COP(=O)(O)OP(=O)(O)OP(=O)(O)OP(=O)(O)OC[C@H]3O[C@@H](n4ccc(=O)[nH]c4=O)[C@H](O)[C@@H]3O)[C@@H](O)[C@H]2O)c(=O)[nH]1 [diquafosol sodium]
corneal epithelial disorders [7]: ameliorated corneal epithelial disorders | secretion of tear [7]: promoted secretion of tear

CC[C@@H]1C(=O)OC[C@@H]1Cc1cncn1C [pilocarpine, pilocarpine hydrochloride]
tear volume (length of the wet part of Schirmer's test paper) compared with the saline group [1]: significantly increased only in the DIQUAS ophthalmic solution 3% group and the 0.05% delgocitinib solution group | tear volume (length of the wet part of Schirmer's test paper) compared with the saline group [3]: significantly increased
